Test results reported in ChEMBL document CHEMBL1201862, “PubChem BioAssay data set” (2004).
pIC50: −log10 of the molar value. Active and inactive are the calls of the source. For most assays here, no stated cut-off is given here; in the data, actives have a measured EC50 and inactives only a lower limit.

How the values were obtained:
Ephrin type-A receptor 4 = Ephrin type-A receptor 4 (Mus musculus, UniProt Q03137); experiment: EphA4 ligand-binding antagonists – biochemical, colorimetric, mouse EphA4, primary screen (AID 689); type: functional
Sequence of Ephrin type-A receptor 4 (Q03137 whole entry): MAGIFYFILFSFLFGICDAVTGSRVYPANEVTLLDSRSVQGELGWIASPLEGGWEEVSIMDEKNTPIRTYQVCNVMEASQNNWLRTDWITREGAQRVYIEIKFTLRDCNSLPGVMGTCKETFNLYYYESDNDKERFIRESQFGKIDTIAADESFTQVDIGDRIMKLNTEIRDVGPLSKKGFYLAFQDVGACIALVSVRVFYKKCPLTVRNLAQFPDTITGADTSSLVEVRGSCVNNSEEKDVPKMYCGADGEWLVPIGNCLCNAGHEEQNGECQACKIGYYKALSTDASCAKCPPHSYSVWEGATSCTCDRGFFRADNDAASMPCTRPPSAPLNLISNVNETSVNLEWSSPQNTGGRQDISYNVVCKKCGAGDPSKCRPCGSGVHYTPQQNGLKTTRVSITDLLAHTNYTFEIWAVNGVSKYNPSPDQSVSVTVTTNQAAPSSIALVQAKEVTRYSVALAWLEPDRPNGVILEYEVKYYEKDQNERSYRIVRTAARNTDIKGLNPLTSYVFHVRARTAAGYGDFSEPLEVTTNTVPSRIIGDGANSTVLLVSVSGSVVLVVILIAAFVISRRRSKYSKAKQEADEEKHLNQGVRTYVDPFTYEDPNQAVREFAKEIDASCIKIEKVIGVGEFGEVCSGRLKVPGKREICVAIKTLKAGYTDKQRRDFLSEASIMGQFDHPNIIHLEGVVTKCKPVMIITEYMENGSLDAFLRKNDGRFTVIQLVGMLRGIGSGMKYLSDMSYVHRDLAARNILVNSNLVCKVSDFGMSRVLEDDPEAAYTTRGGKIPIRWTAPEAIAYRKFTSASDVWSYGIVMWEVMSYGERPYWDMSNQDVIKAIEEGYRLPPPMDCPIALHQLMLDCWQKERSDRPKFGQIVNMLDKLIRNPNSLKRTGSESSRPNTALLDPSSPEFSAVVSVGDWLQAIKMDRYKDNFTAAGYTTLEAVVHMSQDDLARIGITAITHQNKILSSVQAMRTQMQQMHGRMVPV

Genome polyprotein = Genome polyprotein (dengue virus type 2, UniProt P29990); experiment: flavivirus cap methylation enzyme inhibition – biochemical, confirmation dose response, primary screen (AID 588689); type: functional
Sequence of Genome polyprotein (P29990 2492-3391 limits assumed): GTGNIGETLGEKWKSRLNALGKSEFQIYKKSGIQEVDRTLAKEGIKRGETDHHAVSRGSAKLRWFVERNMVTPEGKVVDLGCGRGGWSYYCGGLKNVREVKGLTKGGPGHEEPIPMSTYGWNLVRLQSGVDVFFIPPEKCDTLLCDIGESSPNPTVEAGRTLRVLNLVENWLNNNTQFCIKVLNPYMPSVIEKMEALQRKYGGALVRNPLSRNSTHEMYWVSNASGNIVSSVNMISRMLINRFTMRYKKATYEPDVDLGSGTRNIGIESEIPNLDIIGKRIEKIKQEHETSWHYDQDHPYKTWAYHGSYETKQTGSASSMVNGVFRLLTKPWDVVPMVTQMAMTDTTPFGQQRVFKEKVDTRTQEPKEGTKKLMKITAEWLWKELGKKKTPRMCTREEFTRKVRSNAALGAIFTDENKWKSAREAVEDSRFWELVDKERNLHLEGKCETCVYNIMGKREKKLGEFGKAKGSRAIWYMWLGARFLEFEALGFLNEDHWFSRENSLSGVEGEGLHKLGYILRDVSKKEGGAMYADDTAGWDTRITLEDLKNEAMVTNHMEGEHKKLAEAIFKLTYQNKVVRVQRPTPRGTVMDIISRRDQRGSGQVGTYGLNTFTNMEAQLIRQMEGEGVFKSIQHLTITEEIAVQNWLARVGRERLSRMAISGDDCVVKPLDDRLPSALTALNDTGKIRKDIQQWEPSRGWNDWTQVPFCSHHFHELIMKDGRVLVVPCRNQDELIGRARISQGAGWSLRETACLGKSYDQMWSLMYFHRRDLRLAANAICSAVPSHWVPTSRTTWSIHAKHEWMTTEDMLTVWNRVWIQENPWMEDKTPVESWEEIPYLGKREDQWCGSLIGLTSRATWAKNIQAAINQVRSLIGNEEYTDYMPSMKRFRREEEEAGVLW

[1] = target: Potassium voltage-gated channel subfamily KQT member 2 (Rattus norvegicus, UniProt O88943, W236L); experiment: potentiation of rat KCNQ2 current – cell-based, automated electrophysiology, mechanism study for KCNQ2 potentiator project, dose response (AID 2603); type: functional
Sequence of Potassium voltage-gated channel subfamily KQT member 2 (O88943 whole entry W236L): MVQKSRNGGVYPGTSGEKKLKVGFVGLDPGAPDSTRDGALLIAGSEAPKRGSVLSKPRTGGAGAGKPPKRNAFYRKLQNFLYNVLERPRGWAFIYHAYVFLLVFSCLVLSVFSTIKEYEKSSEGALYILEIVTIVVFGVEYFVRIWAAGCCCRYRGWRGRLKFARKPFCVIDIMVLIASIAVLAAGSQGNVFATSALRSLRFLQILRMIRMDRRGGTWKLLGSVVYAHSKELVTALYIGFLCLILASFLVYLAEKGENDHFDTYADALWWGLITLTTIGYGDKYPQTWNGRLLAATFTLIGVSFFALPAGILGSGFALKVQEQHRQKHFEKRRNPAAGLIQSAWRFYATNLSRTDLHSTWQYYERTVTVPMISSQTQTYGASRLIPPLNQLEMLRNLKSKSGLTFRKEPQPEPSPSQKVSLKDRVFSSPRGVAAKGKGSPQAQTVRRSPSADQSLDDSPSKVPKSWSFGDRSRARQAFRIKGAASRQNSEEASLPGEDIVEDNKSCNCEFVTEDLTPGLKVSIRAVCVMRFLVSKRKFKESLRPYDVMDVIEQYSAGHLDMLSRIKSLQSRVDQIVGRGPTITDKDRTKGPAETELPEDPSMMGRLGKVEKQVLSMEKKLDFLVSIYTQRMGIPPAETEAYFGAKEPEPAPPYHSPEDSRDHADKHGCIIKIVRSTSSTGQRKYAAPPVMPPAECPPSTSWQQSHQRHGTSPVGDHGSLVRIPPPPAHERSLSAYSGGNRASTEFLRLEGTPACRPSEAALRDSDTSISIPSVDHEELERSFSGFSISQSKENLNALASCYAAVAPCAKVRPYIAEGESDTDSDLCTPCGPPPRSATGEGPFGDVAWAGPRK

[2] = target: T1, Replicative DNA helicase DnaB (Mycobacterium tuberculosis, UniProt P9WMR3); experiment: DnaB intein splicing inhibitors, dose response, biochemical, cell-free fluorescence (AID 449749); type: functional
T1 sequence (P9WMR3 whole entry): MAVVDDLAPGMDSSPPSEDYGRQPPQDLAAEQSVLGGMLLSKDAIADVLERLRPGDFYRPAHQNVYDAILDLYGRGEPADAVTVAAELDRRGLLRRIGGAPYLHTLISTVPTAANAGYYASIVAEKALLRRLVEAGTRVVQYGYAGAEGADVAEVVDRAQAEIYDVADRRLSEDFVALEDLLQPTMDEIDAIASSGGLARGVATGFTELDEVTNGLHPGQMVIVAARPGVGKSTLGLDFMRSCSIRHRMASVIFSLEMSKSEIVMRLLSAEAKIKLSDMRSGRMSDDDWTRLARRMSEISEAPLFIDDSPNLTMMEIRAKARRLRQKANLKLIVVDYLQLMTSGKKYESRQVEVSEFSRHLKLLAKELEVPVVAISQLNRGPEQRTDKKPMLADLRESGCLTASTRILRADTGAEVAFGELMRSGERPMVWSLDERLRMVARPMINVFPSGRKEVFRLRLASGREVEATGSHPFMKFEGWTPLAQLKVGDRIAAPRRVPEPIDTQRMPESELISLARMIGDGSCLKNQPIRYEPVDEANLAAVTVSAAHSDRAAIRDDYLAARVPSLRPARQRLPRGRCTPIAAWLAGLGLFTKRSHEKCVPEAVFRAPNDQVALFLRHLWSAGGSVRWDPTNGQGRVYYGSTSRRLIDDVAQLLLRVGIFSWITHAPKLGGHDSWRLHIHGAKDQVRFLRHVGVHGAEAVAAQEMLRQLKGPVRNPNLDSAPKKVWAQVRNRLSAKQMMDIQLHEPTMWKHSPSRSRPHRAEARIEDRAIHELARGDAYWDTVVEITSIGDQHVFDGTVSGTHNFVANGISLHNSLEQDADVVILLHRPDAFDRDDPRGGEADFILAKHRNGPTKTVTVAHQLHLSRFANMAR

Protein RecA = target: T2, Protein RecA (Mycobacterium tuberculosis, UniProt P9WHJ3); experiment: Fluorescence Cell-Free Homogeneous Dose Retest to Identify Inhibitors of RecA-Intein Splicing Activity. [Related pubchem assays (depositor defined):AID2097, AID2223, AID489010, AID492950]; type: functional
T2 sequence (P9WHJ3 whole entry): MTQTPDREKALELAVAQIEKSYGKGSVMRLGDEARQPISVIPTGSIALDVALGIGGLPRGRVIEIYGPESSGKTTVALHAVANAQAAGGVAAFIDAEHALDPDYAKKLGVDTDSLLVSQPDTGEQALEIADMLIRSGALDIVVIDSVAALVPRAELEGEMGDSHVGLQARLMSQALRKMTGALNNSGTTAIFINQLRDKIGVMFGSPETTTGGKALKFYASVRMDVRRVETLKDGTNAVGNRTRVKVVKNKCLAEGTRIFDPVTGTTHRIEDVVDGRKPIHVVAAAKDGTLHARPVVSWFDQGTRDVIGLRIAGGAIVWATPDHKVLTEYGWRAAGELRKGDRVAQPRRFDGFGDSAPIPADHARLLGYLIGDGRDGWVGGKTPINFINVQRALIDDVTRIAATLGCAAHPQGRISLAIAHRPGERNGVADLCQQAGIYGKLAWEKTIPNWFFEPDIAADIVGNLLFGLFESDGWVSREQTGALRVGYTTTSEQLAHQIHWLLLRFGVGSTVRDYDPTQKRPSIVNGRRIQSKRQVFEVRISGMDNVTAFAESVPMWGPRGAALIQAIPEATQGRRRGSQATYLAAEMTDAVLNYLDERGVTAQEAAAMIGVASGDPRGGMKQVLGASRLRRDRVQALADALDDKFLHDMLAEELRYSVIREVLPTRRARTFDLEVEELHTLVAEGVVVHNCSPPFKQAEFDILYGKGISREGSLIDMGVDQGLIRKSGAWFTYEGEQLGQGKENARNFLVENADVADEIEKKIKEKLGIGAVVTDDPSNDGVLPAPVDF

[3] = Luminescence Cell-Based Dose Response to Identify Activators of Luciferase Translation or Activity in H4-C Neuroglioblastoma Cells. [Related pubchem assays: 1829 (Project Summary), 1814 (Primary HTS)]; type: functional
H4 = experiment: Luminescence Cell-Based Dose Response HTS to Identify Activators of 5'UTR Stem-Loop Driven Prion Protein mRNA Translation in H4 Neuroglioblastoma Cells. [Related pubchem assays: 1829 (Project Summary), 1814 (Primary HTS)]; type: functional; conditions: Homo sapiens
[4] = Luminescence Cell-Based Dose Response HTS to Identify Activators of Luciferase Translation or Activity in H4 […] Cells. [Related pubchem assays: 1829 (Project Summary), 1814 (Primary HTS)]; type: functional
[5] = Luminescence Cell-Based Dose Confirmation to Identify Activators of 5'UTR Stem-Loop Driven Alpha-Synuclein mRNA Translation in H4 Neuroglioblastoma Cells. [Related pubchem assays: 1829 (Project Summary), 1814 (Primary HTS)]; type: functional
[6] = Luminescence Cell-Based Dose Response to Identify Activators of 5'UTR Stem-Loop Driven Prion Protein mRNA Translation in H4-C Neuroglioblastoma Cells. [Related pubchem assays: 1829 (Project Summary), 1814 (Primary HTS)]; type: functional
[7] = Luminescence Cell-Based Dose Response HTS to Identify Inhibitors of 5'UTR Stem-Loop Driven Prion Protein mRNA Translation in H4 Neuroglioblastoma Cells. [Related pubchem assays: 1827 (Project Summary), 1813 (Primary HTS)]; type: functional
[8] = Luminescence-based dose response cell-based high throughput screening assay for cytotoxic compounds using the IEC-6 intestinal epithelial cell line. [Related pubchem assays: 1858 (Summary AID.), 1825 (Counterscreen.), 1907 (Confirmation screen.)]; type: functional
[9] = DRD fibroblast viability loss – cell-based, non-viral oncogenic, luminescence, dose response (AID 1934); type: functional; conditions: Homo sapiens
[10] = luciferase reporter signal reduction – luminescence, H4-C neuroglioblastoma cells, dose response (AID 2458); type: functional, cell-based;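 further: H4 neuroglioblastoma cells stably carrying a luciferase reporter gene fusion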
Beta-galactosidase [11] = target: T3, Beta-galactosidase (Escherichia coli, UniProt Q8VNN2); experiment: Dose response counterscreen for EBI2 assay utilizing the enzyme, b-galactosidase.; type: functional
T3 sequence (Q8VNN2 whole entry): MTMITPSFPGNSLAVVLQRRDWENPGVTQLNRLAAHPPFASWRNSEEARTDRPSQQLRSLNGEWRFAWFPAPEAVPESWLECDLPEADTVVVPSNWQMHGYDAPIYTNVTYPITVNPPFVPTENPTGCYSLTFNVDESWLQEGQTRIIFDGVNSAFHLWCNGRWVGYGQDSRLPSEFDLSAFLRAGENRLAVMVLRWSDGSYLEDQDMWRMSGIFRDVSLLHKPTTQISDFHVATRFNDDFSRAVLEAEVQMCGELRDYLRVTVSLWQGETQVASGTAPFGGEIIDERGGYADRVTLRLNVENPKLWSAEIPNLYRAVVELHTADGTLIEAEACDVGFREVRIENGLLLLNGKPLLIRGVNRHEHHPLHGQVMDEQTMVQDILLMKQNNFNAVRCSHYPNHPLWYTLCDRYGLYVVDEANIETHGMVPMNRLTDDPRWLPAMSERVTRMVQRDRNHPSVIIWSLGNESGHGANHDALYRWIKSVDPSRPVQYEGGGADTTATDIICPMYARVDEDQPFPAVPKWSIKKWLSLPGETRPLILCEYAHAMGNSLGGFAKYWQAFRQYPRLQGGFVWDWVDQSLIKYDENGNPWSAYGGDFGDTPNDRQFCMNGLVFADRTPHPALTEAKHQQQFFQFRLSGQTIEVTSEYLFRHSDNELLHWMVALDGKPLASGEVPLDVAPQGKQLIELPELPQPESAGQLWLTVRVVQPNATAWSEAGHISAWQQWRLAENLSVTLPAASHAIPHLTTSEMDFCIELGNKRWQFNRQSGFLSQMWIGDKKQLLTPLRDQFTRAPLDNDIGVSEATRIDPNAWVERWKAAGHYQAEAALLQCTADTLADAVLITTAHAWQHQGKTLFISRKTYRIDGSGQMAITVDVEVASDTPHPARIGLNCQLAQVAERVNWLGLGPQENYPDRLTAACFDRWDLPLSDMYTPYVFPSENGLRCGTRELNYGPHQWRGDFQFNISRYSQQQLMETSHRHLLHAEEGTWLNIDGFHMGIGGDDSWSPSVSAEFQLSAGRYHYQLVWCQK

[12] = alpha-synuclein stem-loop translation blockers – luminescence, H4 neuroglioblastoma cells, dose confirmation, confirmation (AID 2454); type: functional, cell-based;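 further: H4 neuroglioblastoma cells carrying an alpha-synuclein 5'UTR luciferase reporter; potency for inhibition of the luciferase signal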
[13] = alpha-synuclein stem-loop luciferase translation blockers – H4 neuroglioma cells, luminescence, confirmation (AID 1988); type: functional, cell-based
BJ [14] = experiment: cells; type: functional, cell-based; conditions: Homo sapiens
BJ [15] = experiment: growth inhibition of engineered Ras-driven BJ cells – cell-based, alamar blue fluorescence, cherrypicked samples, dose response (AID 2631); type: functional; conditions: Homo sapiens;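 further: confirmatory dose-response assay in RAS-dependent BJ fibroblasts engineered with TERT, LT and ST, with cytotoxicity read by fluorescence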
[16] = target: T4, Kappa-type opioid receptor (Homo sapiens, UniProt P41145); type: functional
T4 sequence (P41145 whole entry): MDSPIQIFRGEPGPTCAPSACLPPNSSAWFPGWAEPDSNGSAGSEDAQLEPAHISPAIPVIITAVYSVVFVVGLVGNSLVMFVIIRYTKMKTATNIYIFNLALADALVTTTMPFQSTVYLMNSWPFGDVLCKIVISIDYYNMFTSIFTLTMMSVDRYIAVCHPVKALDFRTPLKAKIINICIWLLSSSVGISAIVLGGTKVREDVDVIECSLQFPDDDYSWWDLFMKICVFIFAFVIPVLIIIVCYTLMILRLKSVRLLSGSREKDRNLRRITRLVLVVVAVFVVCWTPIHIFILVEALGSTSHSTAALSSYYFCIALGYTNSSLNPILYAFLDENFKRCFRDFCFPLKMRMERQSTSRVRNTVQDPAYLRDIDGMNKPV

BJ [17] = experiment: BJ-TERT fibroblast viability loss – cell-based, RAS-independent, luminescence, dose response (AID 1933); type: functional; conditions: Homo sapiens
BJ [18] = experiment: BJ-TERT-LT-ST fibroblast viability loss – cell-based, RAS-independent, luminescence, dose response (AID 1935); type: functional; conditions: Homo sapiens;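 further: BJ fibroblasts immortalized with TERT plus LT and ST oncogenes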
Beta-galactosidase [19] = target: T3, Beta-galactosidase; type: functional
[20] = luciferase reporter signal suppression in cells – H4 neuroglioma cells, luminescence, dose response (AID 1990); type: functional, cell-based
[21] = target: T5, Zinc finger protein mex-5 (Caenorhabditis elegans, UniProt Q9XUB2); experiment: potency of MEX-5 RNA-binding blockers – biochemical, C. elegans, fluorescence polarization, dose response (AID 1960)
T5 sequence (Q9XUB2 whole entry): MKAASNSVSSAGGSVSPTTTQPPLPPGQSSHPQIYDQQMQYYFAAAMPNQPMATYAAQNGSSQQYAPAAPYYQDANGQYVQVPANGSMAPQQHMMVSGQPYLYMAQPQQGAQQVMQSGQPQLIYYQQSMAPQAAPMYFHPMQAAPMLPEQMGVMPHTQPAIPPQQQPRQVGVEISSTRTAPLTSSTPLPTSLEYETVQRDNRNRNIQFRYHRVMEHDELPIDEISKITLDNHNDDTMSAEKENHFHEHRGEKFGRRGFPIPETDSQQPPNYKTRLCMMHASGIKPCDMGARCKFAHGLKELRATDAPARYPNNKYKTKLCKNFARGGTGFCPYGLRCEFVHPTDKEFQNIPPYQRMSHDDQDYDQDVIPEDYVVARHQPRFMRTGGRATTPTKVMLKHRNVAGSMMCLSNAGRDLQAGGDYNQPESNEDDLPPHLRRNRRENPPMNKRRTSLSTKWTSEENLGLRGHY

[22] = target: T4, Kappa-type opioid receptor; type: functional; remark: listed apart in the source
cells = type: functional, cell-based
[23] = target: T6, RNA-binding protein pos-1 (Caenorhabditis elegans, UniProt G5EF15); experiment: disruptors of C. elegans POS-1 RNA interaction – biochemical, fluorescence polarization, dose response (AID 1964);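 further: purified POS-1 fused to maltose binding protein made in E. coli; potency of compounds blocking POS-1 binding to fluorescent RNA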
T6 sequence (G5EF15 whole entry): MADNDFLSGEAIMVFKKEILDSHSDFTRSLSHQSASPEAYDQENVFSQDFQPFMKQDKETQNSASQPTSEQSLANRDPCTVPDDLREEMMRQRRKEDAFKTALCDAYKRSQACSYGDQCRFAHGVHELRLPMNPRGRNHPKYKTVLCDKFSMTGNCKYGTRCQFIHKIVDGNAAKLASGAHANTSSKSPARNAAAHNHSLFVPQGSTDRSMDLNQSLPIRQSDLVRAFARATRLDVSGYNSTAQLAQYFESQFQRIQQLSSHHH

[24] = target: Heat shock protein HSP 90-alpha (Homo sapiens, UniProt P07900); type: functional, organism-based
Nonstructural protein 1 = Nonstructural protein 1 (Influenza A virus, UniProt Q194T2); type: functional, Influenza A virus (A/California/07/2009(H1N1))
Sequence of Nonstructural protein 1 (Q194T2 whole entry): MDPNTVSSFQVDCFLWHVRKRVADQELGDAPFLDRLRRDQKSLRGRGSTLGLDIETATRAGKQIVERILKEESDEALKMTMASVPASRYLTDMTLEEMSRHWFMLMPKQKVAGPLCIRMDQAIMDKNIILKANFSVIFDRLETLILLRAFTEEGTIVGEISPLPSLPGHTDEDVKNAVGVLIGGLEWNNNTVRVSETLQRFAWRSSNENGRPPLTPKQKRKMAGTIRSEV

Cytochrome P450 3A4 = Cytochrome P450 3A4 (Homo sapiens, UniProt P08684);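 further: CYP3A4 tested as one member of a cytochrome P450 panel screen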
Sequence of Cytochrome P450 3A4 (P08684 whole entry): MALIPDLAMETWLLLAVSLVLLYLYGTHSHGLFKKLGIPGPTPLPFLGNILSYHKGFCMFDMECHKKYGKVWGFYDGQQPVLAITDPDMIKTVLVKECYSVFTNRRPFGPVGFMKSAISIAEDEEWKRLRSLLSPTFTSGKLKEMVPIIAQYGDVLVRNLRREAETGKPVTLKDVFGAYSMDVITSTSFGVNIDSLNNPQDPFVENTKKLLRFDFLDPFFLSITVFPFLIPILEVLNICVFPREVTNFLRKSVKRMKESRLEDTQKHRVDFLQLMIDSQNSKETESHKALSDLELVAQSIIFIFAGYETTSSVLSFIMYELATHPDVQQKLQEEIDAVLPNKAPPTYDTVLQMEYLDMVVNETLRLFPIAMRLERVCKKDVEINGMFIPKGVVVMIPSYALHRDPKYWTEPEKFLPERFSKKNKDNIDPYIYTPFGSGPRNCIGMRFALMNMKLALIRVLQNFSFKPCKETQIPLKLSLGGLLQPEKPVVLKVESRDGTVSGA

Cytochrome P450 1A2 = target: T7, Cytochrome P450 1A2 (Homo sapiens, UniProt P05177);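 further: PubChem cytochrome P450 panel assay, CYP1A2 panel member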
T7 sequence (P05177 whole entry): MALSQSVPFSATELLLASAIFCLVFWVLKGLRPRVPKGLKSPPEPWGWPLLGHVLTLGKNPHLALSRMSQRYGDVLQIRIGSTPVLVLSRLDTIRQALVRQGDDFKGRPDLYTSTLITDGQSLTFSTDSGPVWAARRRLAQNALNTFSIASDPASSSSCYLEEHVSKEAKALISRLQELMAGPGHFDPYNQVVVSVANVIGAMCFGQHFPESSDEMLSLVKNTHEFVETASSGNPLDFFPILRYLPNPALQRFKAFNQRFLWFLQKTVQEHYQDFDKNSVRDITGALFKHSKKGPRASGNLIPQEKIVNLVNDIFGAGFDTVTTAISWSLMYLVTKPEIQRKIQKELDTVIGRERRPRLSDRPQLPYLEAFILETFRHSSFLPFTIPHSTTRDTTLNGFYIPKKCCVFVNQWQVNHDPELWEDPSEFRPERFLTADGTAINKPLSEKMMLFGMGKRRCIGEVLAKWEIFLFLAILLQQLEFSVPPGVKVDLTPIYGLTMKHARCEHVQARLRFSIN

CC(=O)Nc1ccc(NC2=Nc3ccccc3N3C2=Nc2c(c(C)nn2-c2ccccc2)C3c2ccccc2)cc1 (configuration not stated)
IC50 (Ephrin type-A receptor 4): 16600 nM (active)

Cc1oc2cc([N+](=O)[O-])c(O)c([N+](=O)[O-])c2c1C(=O)c1ccc(Cl)cc1
IC50 (Genome polyprotein): 61900 nM (active) | EC50 [1]: 555000 nM (active) | AC50 [2]: 4120 nM (active) | EC50 (Protein RecA): 10400 nM (active)

O=c1cccccc1NN=C1CCCCCC1
EC50 [3]: 385 nM (active) | EC50 (H4): > 120000 nM (not active) | EC50 [4]: < 100 nM (active) | EC50 [5]: 446 nM (active) | EC50 [6]: 608 nM (active)

O=C(Nc1ccc(Cl)cc1)c1ccc(OCC2CCCO2)cc1 (configuration not stated)
EC50 [3]: 301 nM (active) | EC50 [5]: > 12000 nM (not active) | EC50 [6]: 924 nM (active)

C/C(=N\Nc1ncnc2sc(C)c(C)c12)c1ccccn1
EC50 [7]: < 100 nM (active) | IC50 [8]: 76.2 nM (active) | EC50 [9]: 2020 nM (inconclusive) | EC50 [10]: 222 nM (active) | IC50 (Beta-galactosidase [11]): > 80000 nM (inactive) | EC50 [12]: 378 nM (active) | EC50 [13]: < 100 nM (active) | EC50 (BJ [14]): 966 nM (inconclusive) | EC50 (BJ [15]): < 104 nM (active) | pIC50 [16]: < 4.49 | EC50 (BJ [17]): 711 nM (inconclusive) | EC50 (BJ [18]): 754 nM (inconclusive) | EC50 (Beta-galactosidase [19]): > 31500 nM (inactive) | EC50 [20]: 244 nM (active) | EC50 [21]: 46700 nM (inconclusive) | IC50 [22]: > 31500 nM (inactive) | EC50 (cells): 472 nM (active) | EC50 [23]: 23300 nM (inconclusive) | AC50 [24]: 2420 nM (active) | IC50 (Nonstructural protein 1): 19300 nM (active)

O=C(Nc1cccc(OC(F)(F)F)c1)c1ccc(Br)o1
EC50 [1]: 13800 nM (active)

COc1cc(/C=C2\SC(=S)N(Nc3ccccc3)C2=O)cc(OC)c1OC
AC50 (Cytochrome P450 3A4): 15800 nM (inconclusive) | IC50 (Ephrin type-A receptor 4): 2640 nM (active) | AC50 (Cytochrome P450 1A2): 7080 nM (inconclusive)
